Measured values as given in patent US6737383B1, “Herbicidal oxadiazolidines” (priority 1999, dated 2004).

Columns and labels:
cocklebur = assay: Test B pre/postemergence cocklebur; format: in vivo, Xanthium strumarium
Outline: (§1)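 Test chemicals in a non-phytotoxic solvent mixture with surfactant were sprayed preemergence onto planted seeds and postemergence onto plants 2 to 18 cm tall (1- to 4-leaf stage). After twelve to sixteen days in a greenhouse, injury was visually rated against untreated controls from 0 (no effect) to 10 (complete control).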

rape = assay: Test B pre/postemergence rape; format: in vivo, Brassica napus
Outline: as §1

wild oat = assay: Test B pre/postemergence wild oat; format: in vivo, Avena fatua
Outline: as §1

velvetleaf = assay: Test B pre/postemergence velvetleaf; format: in vivo, Abutilon theophrasti
Outline: as §1

sugar beet = assay: Test B pre/postemergence sugar beet; format: in vivo, Beta vulgaris
Outline: as §1

morningglory = assay: Test B pre/postemergence morningglory; format: in vivo, Ipomoea hederacea
Outline: as §1

corn = assay: Test B pre/postemergence corn; format: in vivo, Zea mays
Outline: as §1

crabgrass = assay: Test B pre/postemergence crabgrass; format: in vivo, Digitaria sanguinalis
Outline: as §1

purple nutsedge = assay: Test B pre/postemergence purple nutsedge; format: in vivo, Cyperus rotundus
Outline: as §1

giant foxtail = assay: Test B pre/postemergence giant foxtail; format: in vivo, Setaria faberii
Outline: as §1

wheat = assay: Test B pre/postemergence wheat; format: in vivo, Triticum aestivum
Outline: as §1

bedstraw = assay: Test B pre/postemergence bedstraw; format: in vivo, Galium aparine; conditions: Preemergence
Outline: as §1

soybean = assay: Test B pre/postemergence soybean; format: in vivo, Glycine max
Outline: as §1

blackgrass = assay: Test B pre/postemergence blackgrass; format: in vivo, Alopecurus myosuroides
Outline: as §1

surinam grass = assay: Test B pre/postemergence surinam grass; format: in vivo, Brachiaria decumbens
Outline: as §1

pigweed = assay: Test B pre/postemergence pigweed; format: in vivo, Amaranthus retroflexus
Outline: as §1

[1] = Postemergence, Rate 62 g/ha, scale 0 to 10, 0 is no effect, 10 is complete control
[2] = Postemergence, Rate 125 g/ha, scale of 0 to 10 where 0 is no effect and 10 is complete control
[3] = Preemergence, Rate 125 g/ha, scale of 0 to 10 where 0 is no effect and 10 is complete control
[4] = Preemergence, Rate 250 g/ha, scale 0 (no effect) to 10 (complete control)
[5] = Rate 62 g/ha, Preemergence, scale 0 to 10
[6] = Rate 250 g/ha, Postemergence, scale 0 to 10, 0 is no effect, 10 is complete control
[7] = Rate 500 g/ha, Postemergence, scale 0 to 10, 0 is no effect, 10 is complete control
[8] = Rate 500 g/ha, Preemergence, scale 0 to 10 (0 no effect, 10 complete control)

C#CCCn1c(=O)on(C(=O)N(c2ccc(F)cc2F)C(C)C)c1=O [Compound 744]
2: Rape plant response rating (rape; [2]) | Wild oats plant response rating (wild oat; [7]) | Velvetleaf plant response rating (velvetleaf; [7]) | Velvetleaf plant response rating (velvetleaf; [8]) | Plant response rating, Sugarbeets (sugar beet; [3]) | Plant response rating, Morningglory (morningglory; [1]) | Morningglory plant response rating (morningglory; [2]) | Morningglory plant response rating (morningglory; [6]) | Plant response rating, Soybean (soybean; [1]) | B. signalgrass plant response rating (surinam grass; [2])
3: Rape plant response rating (rape; [6]) | Wild oats plant response rating (wild oat; [5]) | Corn plant response rating (corn; [6]) | Plant response rating, Crabgrass (crabgrass; [1]) | Nutsedge plant response rating (purple nutsedge; [6]) | Wheat plant response rating (wheat; [4]) | Soybean plant response rating (soybean; [2])
9: Rape plant response rating (rape; [8]) | Wild oats plant response rating (wild oat; [4]) | Wild oats plant response rating (wild oat; [8]) | Plant response rating, Crabgrass (crabgrass; [3]) | Crabgrass plant response rating (crabgrass; [4]) | Crabgrass plant response rating (crabgrass; [5]) | Crabgrass plant response rating (crabgrass; [7]) | Plant response rating, Giant foxtail (giant foxtail; [3]) | Giant foxtail plant response rating (giant foxtail; [4]) | Giant foxtail plant response rating (giant foxtail; [5]) | Plant response rating, Blackgrass (blackgrass; [3]) | Blackgrass plant response rating (blackgrass; [4]) | Blackgrass plant response rating (blackgrass; [8]) | B. signalgrass plant response rating (surinam grass; [4]) | B. signalgrass plant response rating (surinam grass; [8]) | Redroot pigweed plant response rating (pigweed; [4]) | Redroot pigweed plant response rating (pigweed; [8])
8: Rape plant response rating (rape; [7]) | Plant response rating, Wild oats (wild oat; [3]) | Crabgrass plant response rating (crabgrass; [6]) | Giant foxtail plant response rating (giant foxtail; [2]) | Giant foxtail plant response rating (giant foxtail; [6]) | Giant foxtail plant response rating (giant foxtail; [7]) | Bedstraw plant response rating (bedstraw; Rate 500 g/ha, scale 0 to 10 (0 no effect, 10 complete control)) | Plant response rating, B. signalgrass (surinam grass; [3]) | Plant response rating, Redroot pigweed (pigweed; [3]) | Redroot pigweed plant response rating (pigweed; [7])
7: Sugarbeets plant response rating (sugar beet; [4]) | Sugarbeets plant response rating (sugar beet; [8]) | Corn plant response rating (corn; [8]) | Nutsedge plant response rating (purple nutsedge; [8]) | Wheat plant response rating (wheat; [7])
6: Plant response rating, Rape (rape; [3]) | Rape plant response rating (rape; [4]) | Nutsedge plant response rating (purple nutsedge; [7]) | Plant response rating, Giant foxtail (giant foxtail; [1]) | Blackgrass plant response rating (blackgrass; [5]) | B. signalgrass plant response rating (surinam grass; [7])
10: Crabgrass plant response rating (crabgrass; [8]) | Giant foxtail plant response rating (giant foxtail; [8])
5: Sugarbeets plant response rating (sugar beet; [7]) | Corn plant response rating (corn; [4]) | Corn plant response rating (corn; [7]) | Nutsedge plant response rating (purple nutsedge; [4]) | Wheat plant response rating (wheat; [6]) | Wheat plant response rating (wheat; [8]) | Soybean plant response rating (soybean; [7]) | Plant response rating, Blackgrass (blackgrass; [1]) | Blackgrass plant response rating (blackgrass; [2]) | Blackgrass plant response rating (blackgrass; [6]) | Blackgrass plant response rating (blackgrass; [7]) | B. signalgrass plant response rating (surinam grass; Preemergence, Rate 62 g/ha, scale of 0 to 10 where 0 is no effect and 10 is complete control) | B. signalgrass plant response rating (surinam grass; [6])
4: Rape plant response rating (rape; [5]) | Morningglory plant response rating (morningglory; [7]) | Crabgrass plant response rating (crabgrass; [2]) | Soybean plant response rating (soybean; [6]) | Redroot pigweed plant response rating (pigweed; [5])
0: Plant response rating, Cocklebur (cocklebur; [1]) | Cocklebur plant response rating (cocklebur; [2]) | Plant response rating, Cocklebur (cocklebur; [3]) | Cocklebur plant response rating (cocklebur; [4]) | Cocklebur plant response rating (cocklebur; [5]) | Cocklebur plant response rating (cocklebur; [6]) | Cocklebur plant response rating (cocklebur; [7]) | Cocklebur plant response rating (cocklebur; [8]) | Plant response rating, Rape (rape; [1]) | Plant response rating, Wild oats (wild oat; [1]) | Wild oats plant response rating (wild oat; [2]) | Wild oats plant response rating (wild oat; [6]) | Plant response rating, Velvetleaf (velvetleaf; [1]) | Velvetleaf plant response rating (velvetleaf; [2]) | Plant response rating, Velvetleaf (velvetleaf; [3]) | Velvetleaf plant response rating (velvetleaf; [4]) | Velvetleaf plant response rating (velvetleaf; [5]) | Velvetleaf plant response rating (velvetleaf; [6]) | Plant response rating, Sugarbeets (sugar beet; [1]) | Sugarbeets plant response rating (sugar beet; [2]) | Sugarbeets plant response rating (sugar beet; [5]) | Sugarbeets plant response rating (sugar beet; [6]) | Plant response rating, Morningglory (morningglory; [3]) | Morningglory plant response rating (morningglory; [4]) | Morningglory plant response rating (morningglory; [5]) | Morningglory plant response rating (morningglory; [8]) | Plant response rating, Corn (corn; [1]) | Corn plant response rating (corn; [2]) | Plant response rating, Corn (corn; [3]) | Corn plant response rating (corn; [5]) | Plant response rating, Nutsedge (purple nutsedge; [1]) | Plant response rating, Nutsedge (purple nutsedge; [3]) | Plant response rating, Wheat (wheat; [1]) | Wheat plant response rating (wheat; [2]) | Plant response rating, Wheat (wheat; [3]) | Wheat plant response rating (wheat; [5]) | Plant response rating, Bedstraw (bedstraw; Rate 125 g/ha, scale of 0 to 10 where 0 is no effect and 10 is complete control) | Bedstraw plant response rating (bedstraw; Rate 250 g/ha, scale 0 (no effect) to 10 (complete control)) | Bedstraw plant response rating (bedstraw; Rate 62 g/ha, scale 0 to 10) | Plant response rating, Soybean (soybean; [3]) | Soybean plant response rating (soybean; [4]) | Soybean plant response rating (soybean; [5]) | Soybean plant response rating (soybean; [8]) | Plant response rating, B. signalgrass (surinam grass; [1]) | Plant response rating, Redroot pigweed (pigweed; [1]) | Redroot pigweed plant response rating (pigweed; [2]) | Redroot pigweed plant response rating (pigweed; [6])
